# Assay results: ChEMBL document CHEMBL2150897, “Discovery of DS-8108b, a Novel Orally Bioavailable Renin Inhibitor” (ACS Med Chem Lett, 2012); call rule not given here
# Residue numbers refer to the chain shown, from its start.
# Tests used:
# [1] = Cmax in cynomolgus monkey at 3 mg/kg, po; format: ADME, organism-based, Macaca fascicularis; set-up: dose 3 mg/kg, route oral; details: in vivo
# [2] = Tmax in cynomolgus monkey at 3 mg/kg, po; format: ADME, organism-based, Macaca fascicularis; set-up: dose 3 mg/kg, route oral; details: in vivo
# [3] = AUC ( 0 to t) in cynomolgus monkey at 3 mg/kg, po; format: ADME, organism-based, Macaca fascicularis; set-up: dose 3 mg/kg, route oral; details: plasma
# [4] = Half life in cynomolgus monkey at 3 mg/kg, po; format: ADME, organism-based, Macaca fascicularis; set-up: dose 3 mg/kg, route oral; details: in vivo
# [5] = Oral bioavailability in cynomolgus monkey at 3 mg/kg; format: ADME, organism-based, Macaca fascicularis; details: in vivo
# [6] = AUC ( 0 to t) in cynomolgus monkey at 3 mg/kg, iv; format: ADME, organism-based, Macaca fascicularis; set-up: dose 3 mg/kg, route intravenous; details: plasma
# [7] = Half life in cynomolgus monkey at 3 mg/kg, iv; format: ADME, organism-based, Macaca fascicularis; set-up: dose 3 mg/kg, route intravenous; details: in vivo
# [8] = Clearance in cynomolgus monkey at 3 mg/kg, iv; format: ADME, organism-based, Macaca fascicularis; set-up: dose 3 mg/kg, route intravenous; details: in vivo
# [9] = Volume of distribution at steady state in cynomolgus monkey at 3 mg/kg, iv; format: ADME, organism-based, Macaca fascicularis; set-up: dose 3 mg/kg, route intravenous; details: in vivo, read-out: Vdss
# [10] = Cmax in cynomolgus monkey at 10 mg/kg, po; format: ADME, organism-based, Macaca fascicularis; set-up: dose 10 mg/kg, route oral; details: in vivo
# [11] = Tmax in cynomolgus monkey at 10 mg/kg, po; format: ADME, organism-based, Macaca fascicularis; set-up: dose 10 mg/kg, route oral; details: in vivo
# [12] = AUC ( 0 to t) in cynomolgus monkey at 10 mg/kg, po; format: ADME, organism-based, Macaca fascicularis; set-up: dose 10 mg/kg, route oral; details: plasma
# [13] = Half life in cynomolgus monkey at 10 mg/kg, po; format: ADME, organism-based, Macaca fascicularis; set-up: dose 10 mg/kg, route oral; details: in vivo
# [14] = Oral bioavailability in cynomolgus monkey at 10 mg/kg; format: ADME, organism-based, Macaca fascicularis; details: in vivo
# Renin [15] = biological target: T1, Renin (Homo sapiens, UniProt P00797); test: Inhibition of human recombinant renin compound treated for 10 mins before substrate addition measured after 90 mins by fluorescence method
# T1 sequence (P00797 whole entry): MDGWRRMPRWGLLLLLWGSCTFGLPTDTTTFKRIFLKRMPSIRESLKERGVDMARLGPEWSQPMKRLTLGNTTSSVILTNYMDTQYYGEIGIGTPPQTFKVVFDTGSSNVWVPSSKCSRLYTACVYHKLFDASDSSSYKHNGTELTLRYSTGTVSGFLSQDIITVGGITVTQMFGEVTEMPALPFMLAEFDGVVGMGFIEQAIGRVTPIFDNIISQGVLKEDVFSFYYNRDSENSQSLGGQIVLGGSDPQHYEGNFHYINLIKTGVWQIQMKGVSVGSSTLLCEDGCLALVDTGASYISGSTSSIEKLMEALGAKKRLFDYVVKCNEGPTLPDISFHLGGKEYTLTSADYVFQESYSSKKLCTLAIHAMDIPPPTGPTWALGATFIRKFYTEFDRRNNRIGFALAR
# Renin [16] = biological target: T1, Renin; test: Inhibition of human plasma renin activity after 60 mins by competitive RIA
# Renin [17] = biological target: T2, Renin (Macaca fascicularis, UniProt Q6DLS0); test: Inhibition of cynomolgus monkey plasma renin activity after 60 mins by competitive RIA
# T2 sequence (Q6DLS0 whole entry): T1 sequence (P00797 whole entry) with T68A, I214L, S235A
# Cathepsin D = Cathepsin D (Homo sapiens, UniProt P07339); test: Inhibition of human cathepsin D
# Cathepsin D, sequence (P07339 65-162 limits assumed): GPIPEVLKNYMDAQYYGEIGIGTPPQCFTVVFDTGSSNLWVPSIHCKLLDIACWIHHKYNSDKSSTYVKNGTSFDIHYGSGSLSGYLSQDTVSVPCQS
# Cathepsin D, sequence (P07339 169-412 limits assumed): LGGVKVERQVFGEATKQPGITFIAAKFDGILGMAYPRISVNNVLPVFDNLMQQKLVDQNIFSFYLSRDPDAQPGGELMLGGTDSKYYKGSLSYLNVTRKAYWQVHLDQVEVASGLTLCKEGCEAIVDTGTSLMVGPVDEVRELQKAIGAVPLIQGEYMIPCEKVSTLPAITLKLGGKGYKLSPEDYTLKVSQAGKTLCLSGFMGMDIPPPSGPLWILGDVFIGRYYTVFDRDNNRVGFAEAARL
# Cathepsin E = biological target: T3, Cathepsin E (Homo sapiens, UniProt P14091); test: Inhibition of human cathepsin E
# T3 sequence (P14091 whole entry): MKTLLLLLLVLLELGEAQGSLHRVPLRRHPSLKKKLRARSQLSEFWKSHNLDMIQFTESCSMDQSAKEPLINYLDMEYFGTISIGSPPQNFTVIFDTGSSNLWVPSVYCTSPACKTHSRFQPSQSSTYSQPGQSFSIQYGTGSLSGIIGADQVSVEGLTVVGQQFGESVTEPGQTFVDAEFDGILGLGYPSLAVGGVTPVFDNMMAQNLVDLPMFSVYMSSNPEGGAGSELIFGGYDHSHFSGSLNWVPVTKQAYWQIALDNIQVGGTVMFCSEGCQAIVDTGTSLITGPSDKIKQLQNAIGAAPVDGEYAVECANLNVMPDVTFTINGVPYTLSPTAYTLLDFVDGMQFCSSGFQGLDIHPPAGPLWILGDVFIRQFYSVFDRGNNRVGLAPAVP
# [18] = Inhibition of human pepsin
# [19] = Inhibition of HIV protease; set-up: species or system Human immunodeficiency virus
# [20] = Inhibition of Cytochrome P450; format: ADME
# [21] = biological target: Voltage-gated inwardly rectifying potassium channel KCNH2 (Homo sapiens, UniProt Q12809); test: Inhibition of human ERG at 100 uM
# Voltage-gated inwardly rectifying potassium channel KCNH2, sequence (Q12809 whole entry): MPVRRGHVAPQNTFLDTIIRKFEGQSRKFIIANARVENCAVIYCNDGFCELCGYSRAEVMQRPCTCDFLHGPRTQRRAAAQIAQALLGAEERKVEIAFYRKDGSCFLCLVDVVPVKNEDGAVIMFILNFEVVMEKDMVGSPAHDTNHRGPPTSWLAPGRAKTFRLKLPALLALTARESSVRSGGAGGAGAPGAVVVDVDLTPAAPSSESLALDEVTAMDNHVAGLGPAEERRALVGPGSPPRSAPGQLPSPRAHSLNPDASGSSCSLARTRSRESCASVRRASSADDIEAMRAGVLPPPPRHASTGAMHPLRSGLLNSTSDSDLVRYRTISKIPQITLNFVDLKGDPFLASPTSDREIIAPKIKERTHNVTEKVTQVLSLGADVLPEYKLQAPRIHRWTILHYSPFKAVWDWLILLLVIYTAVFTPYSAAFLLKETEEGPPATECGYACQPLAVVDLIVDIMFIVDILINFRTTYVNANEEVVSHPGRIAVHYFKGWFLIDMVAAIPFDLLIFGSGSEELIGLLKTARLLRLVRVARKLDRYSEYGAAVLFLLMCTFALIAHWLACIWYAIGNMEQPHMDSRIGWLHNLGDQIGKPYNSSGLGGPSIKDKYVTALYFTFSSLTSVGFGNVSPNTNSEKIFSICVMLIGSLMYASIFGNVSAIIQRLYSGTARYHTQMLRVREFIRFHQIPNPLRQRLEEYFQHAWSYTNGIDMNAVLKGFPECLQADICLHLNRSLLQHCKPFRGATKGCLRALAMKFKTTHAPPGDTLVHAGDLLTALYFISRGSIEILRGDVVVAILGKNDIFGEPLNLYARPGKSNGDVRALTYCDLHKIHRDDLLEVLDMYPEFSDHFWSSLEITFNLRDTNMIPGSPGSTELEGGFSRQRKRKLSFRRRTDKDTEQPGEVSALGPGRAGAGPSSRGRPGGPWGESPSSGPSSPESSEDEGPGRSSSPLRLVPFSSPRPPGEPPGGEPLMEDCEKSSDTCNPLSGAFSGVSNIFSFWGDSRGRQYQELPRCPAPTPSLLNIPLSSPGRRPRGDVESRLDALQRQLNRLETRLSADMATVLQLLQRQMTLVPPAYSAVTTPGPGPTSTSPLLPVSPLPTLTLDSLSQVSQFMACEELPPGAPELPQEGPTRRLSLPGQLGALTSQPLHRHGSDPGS
# [22] = biological target: Sodium channel protein type 5 subunit alpha (Homo sapiens, UniProt Q14524); test: Inhibition of human Nav 1.5 at 100 uM
# Sodium channel protein type 5 subunit alpha, sequence (Q14524 whole entry): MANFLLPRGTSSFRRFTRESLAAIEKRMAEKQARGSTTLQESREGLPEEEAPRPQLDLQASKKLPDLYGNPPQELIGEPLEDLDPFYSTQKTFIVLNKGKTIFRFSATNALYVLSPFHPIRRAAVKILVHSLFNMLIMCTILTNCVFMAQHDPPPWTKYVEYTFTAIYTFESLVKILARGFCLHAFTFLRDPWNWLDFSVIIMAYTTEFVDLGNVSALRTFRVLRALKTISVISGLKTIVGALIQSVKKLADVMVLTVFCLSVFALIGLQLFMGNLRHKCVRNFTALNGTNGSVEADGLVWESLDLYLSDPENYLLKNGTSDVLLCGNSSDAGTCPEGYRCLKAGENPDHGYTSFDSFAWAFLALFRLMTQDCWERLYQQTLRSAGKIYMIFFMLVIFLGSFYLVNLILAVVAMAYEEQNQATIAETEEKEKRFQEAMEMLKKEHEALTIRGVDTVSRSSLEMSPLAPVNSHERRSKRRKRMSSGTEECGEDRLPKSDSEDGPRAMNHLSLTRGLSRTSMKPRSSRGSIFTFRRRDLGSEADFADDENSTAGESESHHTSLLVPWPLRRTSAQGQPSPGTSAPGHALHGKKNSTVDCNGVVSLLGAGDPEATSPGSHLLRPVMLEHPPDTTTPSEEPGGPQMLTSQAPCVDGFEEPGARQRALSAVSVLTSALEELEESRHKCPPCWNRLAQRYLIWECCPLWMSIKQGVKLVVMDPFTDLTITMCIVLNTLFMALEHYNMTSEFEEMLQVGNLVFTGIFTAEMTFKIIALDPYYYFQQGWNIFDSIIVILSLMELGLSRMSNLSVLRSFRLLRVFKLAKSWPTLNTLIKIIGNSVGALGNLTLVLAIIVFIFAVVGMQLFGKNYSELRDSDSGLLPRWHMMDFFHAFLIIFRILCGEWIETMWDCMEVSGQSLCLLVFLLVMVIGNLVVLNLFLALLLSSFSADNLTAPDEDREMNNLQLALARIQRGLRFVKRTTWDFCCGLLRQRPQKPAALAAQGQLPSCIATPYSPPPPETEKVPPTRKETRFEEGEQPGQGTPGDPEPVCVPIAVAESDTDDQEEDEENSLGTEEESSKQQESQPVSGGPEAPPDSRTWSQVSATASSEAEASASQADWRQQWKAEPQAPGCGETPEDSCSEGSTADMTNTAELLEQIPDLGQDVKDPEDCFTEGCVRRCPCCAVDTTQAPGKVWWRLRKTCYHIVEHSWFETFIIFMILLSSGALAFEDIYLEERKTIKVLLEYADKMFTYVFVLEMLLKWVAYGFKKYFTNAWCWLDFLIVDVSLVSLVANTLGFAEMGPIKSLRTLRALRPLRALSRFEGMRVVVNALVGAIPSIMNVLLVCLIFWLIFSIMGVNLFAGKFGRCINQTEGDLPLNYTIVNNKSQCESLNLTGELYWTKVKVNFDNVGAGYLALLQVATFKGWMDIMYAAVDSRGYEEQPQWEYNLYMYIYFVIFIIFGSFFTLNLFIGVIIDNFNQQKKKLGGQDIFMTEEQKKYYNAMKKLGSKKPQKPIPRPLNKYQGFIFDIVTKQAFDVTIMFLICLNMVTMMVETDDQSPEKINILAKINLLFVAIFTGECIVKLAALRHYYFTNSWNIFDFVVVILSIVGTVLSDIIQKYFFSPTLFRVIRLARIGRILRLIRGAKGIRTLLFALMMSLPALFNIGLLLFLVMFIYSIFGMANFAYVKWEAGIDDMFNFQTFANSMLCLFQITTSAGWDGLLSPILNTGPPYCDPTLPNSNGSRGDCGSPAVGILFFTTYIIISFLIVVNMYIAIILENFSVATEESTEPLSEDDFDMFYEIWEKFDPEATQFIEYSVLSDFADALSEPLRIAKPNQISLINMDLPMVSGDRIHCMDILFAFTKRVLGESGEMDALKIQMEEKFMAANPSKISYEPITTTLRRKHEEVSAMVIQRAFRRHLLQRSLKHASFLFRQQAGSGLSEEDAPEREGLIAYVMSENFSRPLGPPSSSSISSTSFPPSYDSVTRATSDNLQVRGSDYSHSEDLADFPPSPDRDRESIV
# Salmonella typhimurium [23] = test: Mutagenic activity in Salmonella typhimurium in presence of S9 mixture; format: toxicity, organism-based; details: salmonella enterica subsp. enterica serovar typhimurium
# Salmonella typhimurium [24] = test: Mutagenic activity in Salmonella typhimurium; format: toxicity, organism-based; details: salmonella enterica subsp. enterica serovar typhimurium
# Cynomolgus monkey [25] = test: Ex vivo inhibition of plasma renin activity in po dosed cynomolgus monkey administered after furosemide treatment measured up to 24 hrs; format: functional, organism-based; details: Macaca fascicularis
# Cynomolgus monkey [26] = test: Ex vivo inhibition of plasma renin activity in cynomolgus monkey at 3 mg/kg, po administered after furosemide treatment measured after 24 hrs; format: functional; details: Macaca fascicularis
# Cynomolgus monkey [27] = test: Ex vivo inhibition of plasma renin activity in cynomolgus monkey at 10 mg/kg, po administered after furosemide treatment measured after 24 hrs; format: functional; details: Macaca fascicularis
# Cynomolgus monkey [28] = test: Ex vivo inhibition of plasma renin activity in cynomolgus monkey at 3 to 10mg/kg, po administered after furosemide treatment measured after 24 hrs relative to aliskiren hemifumarate; format: functional, Macaca fascicularis
# Cynomolgus monkey [29] = test: Antihypertensive activity in po dosed cynomolgus monkey assessed as reduction in mean arterial pressure administered as single dose 3 days prior to furosemide treatment measured up to 12 hrs; format: functional, organism-based; details: Macaca fascicularis; Artery
# Cynomolgus monkey [30] = test: Cardiotoxicity in telemetered cynomolgus monkey assessed as change in QRS width at 1000 mg/kg, po administered as single dose measured up to 24 hrs; format: toxicity, organism-based, Macaca fascicularis; set-up: dose 1000 mg/kg, route oral; details: in vivo
# Cynomolgus monkey [31] = test: Cardiotoxicity in telemetered cynomolgus monkey assessed as change in QTc interval at 1000 mg/kg, po administered as single dose measured up to 24 hrs; format: toxicity, organism-based, Macaca fascicularis; set-up: dose 1000 mg/kg, route oral; details: in vivo
compound,measurement,setting,value
CC[C@H](C[C@H](O)[C@@H](N)CN1CC(=O)N(c2ccccc2Cl)CC1(C)C)C(=O)NC1C2CC3CC1CC(O)(C3)C2.O.O=C(O)/C=C/C(=O)O (stereo partly drawn),Cmax,[1],102 ng/mL
same,Tmax,[2],3 h
same,AUC(0-t),[3],685 ng·h/mL
same,half-life,[4],5.1 h
same,bioavailability,[5],4.1%
same,AUC(0-t),[6],15500 ng·h/mL
same,half-life,[7],7.8 h
same,clearance,[8],3.59 mL/min/kg
same,Vd,[9],1.12 L/kg
same,Cmax,[10],399 ng/mL
same,Tmax,[11],2.3 h
same,AUC(0-t),[12],2880 ng·h/mL
same,half-life,[13],5.4 h
same,bioavailability,[14],5.3%
same,IC50,Renin [15],0.9 nM
same,IC50,Renin [16],1.9 nM
same,IC50,Renin [17],6.3 nM
same,IC50,Cathepsin D,> 10000 nM
same,IC50,Cathepsin E,> 10000 nM
same,IC50,[18],> 10000 nM
same,IC50,[19],> 10000 nM
same,IC50,[20],> 10000 nM
same,inhibition (INH),[21],Not Active
same,inhibition (INH),[22],Not Active
same,Activity,Salmonella typhimurium [23],Non-toxic
same,Activity,Salmonella typhimurium [24],Non-toxic
same,inhibition,Cynomolgus monkey [25],Dose-dependent effect
same,inhibition in vivo at 3 mg/kg,Cynomolgus monkey [26],65%
same,inhibition in vivo at 10 mg/kg,Cynomolgus monkey [27],65%
same,Ratio,Cynomolgus monkey [28],3
same,Activity,Cynomolgus monkey [29],Dose-dependent effect
same,Activity,Cynomolgus monkey [30],Non-toxic
same,Activity,Cynomolgus monkey [31],Non-toxic
